Numbered stars: 1 amine (or outer) side, 2 acyl side, 3 side chain; on linkers, the order of the positions; unused ones are H or OH. Square brackets hold non-standard residues; d marks the D form. Peptide text beside a SMILES is read from it. * marks the point of attachment. 5FAM = O=C1OC2(c3ccc(O)cc3Oc3cc(O)ccc32)c2ccc(C(=O)*)cc21; NHCH2C6H4(4-CH2CONH2) = NC(=O)Cc1ccc(CN*)cc1; X1 = O=C(Cc1ccc(CN[*:1])cc1)[*:2]
target: TNFα (Homo sapiens, UniProt P01375); assay: MST binding affinity of resynthesized NNP hits to TNFα; parameters: purchased R&D Systems, Inc. 210-TA/CF; conditions: read-out: KD (nM) [95% conf. int], NNP2 library hit, target TNFα, one-site binding model
Sequence (P01375 77-233 limits assumed): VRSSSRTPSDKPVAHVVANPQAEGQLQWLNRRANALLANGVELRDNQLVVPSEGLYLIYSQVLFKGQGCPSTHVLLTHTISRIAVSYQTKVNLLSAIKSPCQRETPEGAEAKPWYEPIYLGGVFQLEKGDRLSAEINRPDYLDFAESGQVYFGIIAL
Protocol: Hit binding affinity to various targets were determined using Microscale Thermophoresis (MST). MST experiments were performed on a Monolith NT.115pico (NanoTemper Technologies GmbH, Munich, Germany). Measurements were performed at room temperature, in triplicate with incubation periods of 15, 30 and 45 minutes. […] Targets were labeled using Nanotemper Monolith 2nd Generation Protein Labeling Kits. RED-MALEIMIDE (Maleimide-647-dye) labeling kit was used for K-Ras and RED-NHS (NHS-647-dye) labeling kit was used for IL-6, IL-6R, TNFα and ASGPR. The buffer for the ASGPR contained 20 mM HEPES pH 7.4, 150 mM NaCl, 10 mM MgCl2, 2 mM CaCl2, 0.05% Pluronic F-127, and 1 mM DTT; for IL-6 contained 20 mM HEPES pH 7.4, 150 mM KCl, 10 mM MgCl2, and 0.1% Pluronic F-127; for the soluble IL-6 receptor 20 mM HEPES pH 7.4, 150 mM NaCl, 10 mM MgCl2, and 0.05% Tween-20; for K-Ras 20 mM HEPES pH 7.4, 150 mM NaCl, 10 mM MgCl2, 0.05% Tween-20 and 1 mM DTT; for TNFα 10 mM HEPES pH 7.4, 150 mM NaCl, 10 mM MgCl2, 0.05% Polysorbate-20. Triplicate data was analyzed using MO.AffinityAnalysis software (NanoTemper Technologies GmbH).

`CC(C)C[C@H](NC(=O)[C@@H](CCCNC(=N)N)NC(=O)[C@@H](Cc1c[nH]c2ccccc12)NC(=O)Cc1ccc(CNC(=O)[C@H](CC(C)C)NC(=O)[C@@H](CCCCN)NC(=O)[C@@H](CC(C)C)NC(=O)Cc2ccc(CNC(=O)[C@H](CC(C)C)NC(=O)[C@@H](CCCNC(=N)N)NC(=O)[C@@H](CC(C)C)NC(=O)Cc3ccc(CNC(=O)[C@H](Cc4ccccc4)NC(=O)[C@@H](CC(C)C)NC(=O)[C@H](NC(=O)c4ccc5c(c4)C(=O)OC54c5ccc(O)cc5Oc5cc(O)ccc54)[C@H](C)O)cc3)cc2)cc1)C(=O)NCc1ccc(CC(=O)N[C@H](C)C(=O)N[C@H](CCCCN)C(=O)N[C@@H](Cc2ccccc2)C(=O)NCc2ccc(CC(=O)N[C@H](CCC(=O)O)C(=O)N[C@H](CO)C(=O)N[C@H](C(=O)NCc3ccc(CC(=O)N4CCC[C@@H]4C(=O)N[C@@H](C(=O)NCC(=O)NCc4ccc(CC(=O)N[C@H](CCC(=O)O)C(=O)N[C@H](Cc5ccc(O)cc5)C(=O)N[C@@H](Cc5ccccc5)C(=O)NCc5ccc(CC(=O)N[C@H](Cc6ccc(O)cc6)C(=O)N[C@H](CCCNC(=N)N)C(=O)N[C@@H](Cc6ccccc6)C(=O)NCc6ccc(CC(N)=O)cc6)cc5)cc4)C(C)C)cc3)C(C)C)cc2)cc1` [TNF-31-4] (5FAM-[dT][dL]F[X1][dL][dR]L[X1][dL][dK]L[X1][dW][dR]L[X1][dA][dK]F[X1][dE][dS]V[X1][dP][dV]G[X1][dE][dY]F[X1][dY][dR]F-{NHCH2C6H4(4-CH2CONH2)}) was tested. Which Kd did it give?
The Kd was 33 nM.

For `CC(C)C[C@H](NC(=O)[C@@H](CCCNC(=N)N)NC(=O)CNC(=O)Cc1ccc(CNC(=O)[C@H](CC(C)C)NC(=O)[C@H](NC(=O)[C@@H](CCCCN)NC(=O)c2ccc3c(c2)C(=O)OC32c3ccc(O)cc3Oc3cc(O)ccc32)C(C)C)cc1)C(=O)NCc1ccc(CC(=O)N[C@H](Cc2ccccc2)C(=O)N[C@H](CCC(=O)O)C(=O)N[C@H](C(=O)NCc2ccc(CC(=O)N3CCC[C@@H]3C(=O)N[C@H](CCCNC(=N)N)C(=O)N[C@H](C(=O)NCc3ccc(CC(=O)N[C@H](C)C(=O)N[C@H](CCCCN)C(=O)N[C@@H](Cc4ccccc4)C(=O)NCc4ccc(CC(=O)N[C@H](CCC(=O)O)C(=O)N[C@H](CO)C(=O)N[C@H](C(=O)NCc5ccc(CC(=O)N6CCC[C@@H]6C(=O)N[C@@H](C(=O)NCC(=O)NCc6ccc(CC(=O)N[C@@H](C(=O)N[C@H](Cc7c[nH]cn7)C(=O)N[C@@H](CC(C)C)C(=O)NCc7ccc(CC(=O)N[C@H](Cc8ccc(O)cc8)C(=O)N[C@H](CCCNC(=N)N)C(=O)N[C@@H](Cc8ccccc8)C(=O)NCc8ccc(CC(N)=O)cc8)cc7)[C@H](C)O)cc6)C(C)C)cc5)C(C)C)cc4)cc3)C(C)C)cc2)C(C)C)cc1` [TNF-31-5] (5FAM-[dK][dV]L[X1]G[dR]L[X1][dF][dE]V[X1][dP][dR]V[X1][dA][dK]F[X1][dE][dS]V[X1][dP][dV]G[X1][dT][dH]L[X1][dY][dR]F-{NHCH2C6H4(4-CH2CONH2)}), which Kd is on record?
Its Kd is 24 nM.

How did the Kd turn out when `CC(C)C[C@H](NC(=O)[C@@H](CCCNC(=N)N)NC(=O)[C@@H](C)NC(=O)Cc1ccc(CNC(=O)[C@H](Cc2ccccc2)NC(=O)[C@@H](CCCNC(=N)N)NC(=O)[C@@H](CC(N)=O)NC(=O)Cc2ccc(CNC(=O)[C@H](Cc3ccccc3)NC(=O)[C@@H](CCCCN)NC(=O)[C@@H](C)NC(=O)Cc3ccc(CNC(=O)[C@H](C)NC(=O)[C@@H](CCCNC(=N)N)NC(=O)[C@@H](Cc4ccccc4)NC(=O)Cc4ccc(CNC(=O)[C@H](CC(C)C)NC(=O)[C@@H](CCCCN)NC(=O)[C@@H](CC(C)C)NC(=O)Cc5ccc(CNC(=O)[C@H](CC(C)C)NC(=O)[C@@H](CCCNC(=N)N)NC(=O)[C@@H](CC(C)C)NC(=O)Cc6ccc(CNC(=O)[C@H](CC(C)C)NC(=O)[C@@H](CC(C)C)NC(=O)[C@@H](Cc7ccc(O)cc7)NC(=O)c7ccc8c(c7)C(=O)OC87c8ccc(O)cc8Oc8cc(O)ccc87)cc6)cc5)cc4)cc3)cc2)cc1)C(=O)NCc1ccc(CC(=O)N[C@H](Cc2c[nH]c3ccccc23)C(=O)N[C@H](CCCCN)C(=O)N[C@@H](CC(C)C)C(=O)NCc2ccc(CC(=O)N3CCC[C@@H]3C(=O)N[C@H](C)C(=O)N[C@@H](C)C(=O)NCc3ccc(CC(N)=O)cc3)cc2)cc1` [TNF-31-14] (5FAM-[dY][dL]L[X1][dL][dR]L[X1][dL][dK]L[X1][dF][dR]A[X1][dA][dK]F[X1][dN][dR]F[X1][dA][dR]L[X1][dW][dK]L[X1][dP][dA]A-{NHCH2C6H4(4-CH2CONH2)}) was run?
The Kd was 35 nM.

Which Kd does the source give for `CC(C)C[C@H](NC(=O)[C@@H](CCCNC(=N)N)NC(=O)[C@@H](CCC(=O)O)NC(=O)Cc1ccc(CNC(=O)[C@H](C)NC(=O)[C@@H](CCCCN)NC(=O)[C@@H](Cc2ccc(O)cc2)NC(=O)Cc2ccc(CNC(=O)[C@H](C)NC(=O)[C@@H](CCCNC(=N)N)NC(=O)[C@@H](Cc3ccccc3)NC(=O)Cc3ccc(CNC(=O)[C@H](CC(C)C)NC(=O)[C@H](NC(=O)[C@@H](CCCNC(=N)N)NC(=O)Cc4ccc(CNC(=O)[C@H](CC(C)C)NC(=O)[C@@H](CCCNC(=N)N)NC(=O)[C@@H](CC(C)C)NC(=O)Cc5ccc(CNC(=O)[C@H](CC(C)C)NC(=O)[C@H](NC(=O)[C@@H](CCCCN)NC(=O)c6ccc7c(c6)C(=O)OC76c7ccc(O)cc7Oc7cc(O)ccc76)C(C)C)cc5)cc4)C(C)C)cc3)cc2)cc1)C(=O)NCc1ccc(CC(=O)N2CCC[C@@H]2C(=O)N[C@@H](C(=O)NCC(=O)NCc2ccc(CC(=O)N[C@H](CCCCN)C(=O)N[C@H](Cc3ccccc3)C(=O)N[C@@H](Cc3ccccc3)C(=O)NCc3ccc(CC(=O)N[C@H](Cc4c[nH]cn4)C(=O)N[C@H](CCC(=O)O)C(=O)N[C@H](C(=O)NCc4ccc(CC(N)=O)cc4)C(C)C)cc3)cc2)C(C)C)cc1` [TNF-31-15] (5FAM-[dK][dV]L[X1][dL][dR]L[X1][dR][dV]L[X1][dF][dR]A[X1][dY][dK]A[X1][dE][dR]L[X1][dP][dV]G[X1][dK][dF]F[X1][dH][dE]V-{NHCH2C6H4(4-CH2CONH2)}) here?
The Kd was 23 nM.

For `CC(C)C[C@H](NC(=O)[C@@H](CCC(=O)O)NC(=O)[C@H]1CCCN1C(=O)Cc1ccc(CNC(=O)[C@H](CC(C)C)NC(=O)[C@@H](CCCCN)NC(=O)[C@@H](Cc2ccccc2)NC(=O)Cc2ccc(CNC(=O)[C@@H](NC(=O)[C@@H](CCC(=O)O)NC(=O)[C@@H](Cc3ccccc3)NC(=O)Cc3ccc(CNC(=O)[C@H](CC(C)C)NC(=O)[C@@H](CCCNC(=N)N)NC(=O)[C@@H](CC(C)C)NC(=O)Cc4ccc(CNC(=O)[C@H](CC(C)C)NC(=O)[C@H](NC(=O)[C@@H](CCCCN)NC(=O)c5ccc6c(c5)C(=O)OC65c6ccc(O)cc6Oc6cc(O)ccc65)C(C)C)cc4)cc3)C(C)C)cc2)cc1)C(=O)NCc1ccc(CC(=O)N[C@H](Cc2ccccc2)C(=O)N[C@@H](C(=O)N[C@@H](C)C(=O)NCc2ccc(CC(=O)N[C@H](Cc3c[nH]cn3)C(=O)N[C@H](CCC(=O)O)C(=O)N[C@@H](CC(C)C)C(=O)NCc3ccc(CC(=O)N[C@H](CCC(=O)O)C(=O)N[C@H](Cc4ccc(O)cc4)C(=O)N[C@@H](Cc4ccccc4)C(=O)NCc4ccc(CC(=O)N[C@@H](C(=O)N[C@H](CO)C(=O)N[C@H](C(=O)NCc5ccc(CC(N)=O)cc5)C(C)C)[C@H](C)O)cc4)cc3)cc2)[C@H](C)O)cc1` [TNF-31-16] (5FAM-[dK][dV]L[X1][dL][dR]L[X1][dF][dE]V[X1][dF][dK]L[X1][dP][dE]L[X1][dF][dT]A[X1][dH][dE]L[X1][dE][dY]F[X1][dT][dS]V-{NHCH2C6H4(4-CH2CONH2)}), which Kd is on record?
Its Kd is 180 nM.

`CC(C)C[C@H](NC(=O)[C@@H](CCCNC(=N)N)NC(=O)[C@@H](CC(C)C)NC(=O)Cc1ccc(CNC(=O)[C@H](CC(C)C)NC(=O)[C@H](NC(=O)[C@@H](CCCCN)NC(=O)c2ccc3c(c2)C(=O)OC32c3ccc(O)cc3Oc3cc(O)ccc32)C(C)C)cc1)C(=O)NCc1ccc(CC(=O)N[C@H](CCCNC(=N)N)C(=O)N[C@@H](C(=O)N[C@@H](CC(C)C)C(=O)NCc2ccc(CC(=O)N[C@H](Cc3ccccc3)C(=O)N[C@H](CCCNC(=N)N)C(=O)N[C@@H](C)C(=O)NCc3ccc(CC(=O)N[C@H](C)C(=O)N[C@H](CCCCN)C(=O)N[C@@H](Cc4ccccc4)C(=O)NCc4ccc(CC(=O)N[C@H](CC(N)=O)C(=O)N[C@H](CCCNC(=N)N)C(=O)N[C@@H](Cc5ccccc5)C(=O)NCc5ccc(CC(=O)N6CCC[C@@H]6C(=O)N[C@@H](C(=O)NCC(=O)NCc6ccc(CC(=O)N[C@H](CCC(=O)O)C(=O)N[C@H](CCCNC(=N)N)C(=O)N[C@H](C(=O)NCc7ccc(CC(=O)N[C@H](Cc8ccc(O)cc8)C(=O)N[C@H](CCCNC(=N)N)C(=O)N[C@@H](Cc8ccccc8)C(=O)NCc8ccc(CC(N)=O)cc8)cc7)C(C)C)cc6)C(C)C)cc5)cc4)cc3)cc2)C(C)C)cc1` [TNF-39-1] (5FAM-[dK][dV]L[X1][dL][dR]L[X1][dR][dV]L[X1][dF][dR]A[X1][dA][dK]F[X1][dN][dR]F[X1][dP][dV]G[X1][dE][dR]V[X1][dY][dR]F-{NHCH2C6H4(4-CH2CONH2)}) was tested. Which Kd did it give?
Its Kd is 116 nM.
